From publication PMC9727182, “Identification of pharmacokinetic markers for safflower injection using a combination of system pharmacology, multicomponent pharmacokinetics, and quantitative proteomics study” (Frontiers in Pharmacology, 2022)
Values joined by “and” are separate entries in the source; they are usually repeats but may differ in a detail not shown here. Identical values can stand only once.

Legend:
[1] = tested on: H9c2 cardiomyocytes injured by H2O2; experiment: Protection of cardiomyocytes injured by H2O2 (MTT); assay type: cell-based; conditions: for protection: preliminary test at maximum detected plasma concentration
Method: H9c2 cardiomyocytes obtained from Cell Bank of the Chinese Academy of Sciences (Shanghai, China) were cultured in DMEM (high glucose) supplemented with 1% P/S and 15% FBS in 5% CO2 at 37°C. The cells were collected with 0.25% trypsin, followed by re-seeding in 96-well multiplates with a density of 5×10^3 cells per well. The cell experiments were grouped as follows: normal group, model group (H2O2), administration groups and positive control groups (N-Acetyl-L-cysteine, NAC). […] After that, cells were incubated with 0.5 mg/ml of MTT for 4 h under standard condition, followed by addition of 150 µl DMSO into every well. The cell supernatants were finally removed and the optical density (OD) was recorded at 570 nm using a microplate reader (Thermo Fisher Scientific, United States). The protection rate of the compounds on H9c2 cardiomyocytes was calculated as (OD valueadministration group (or NAC group)-OD valuemodel group)/(OD valuenormal group-OD valuemodel group) ×100%.

[2] = Stability of 6 compounds of SI in rat plasma; conditions: for 10h in auto-sampler vials RE: extracted rat plasma; for 6h at room temperature RE / Freeze-thaw stability (three cycles) RE / Long-term stability (-80℃,15 days) RE: rat plasma
Description: The LC-MS method was validated by linearity, limits of detection (LOD), limits of quantification (LOQ), precision, accuracy, extraction recovery, matrix effect and stability of the 6 ingredients in rat plasma. Calibration curves were plotted using weighted linear regression of the peak area ratio of analyte to the IS against the corresponding nominal concentration of the analyte. LOD and LOQ were defined as the detectable concentration at which the ratio of signal to noise was more than 3 and 10, respectively. Intra- and inter-day accuracy and precision were assessed by detecting quality control (QC) samples using five replicates of rat samples at three concentration levels on one or three validation days, respectively. Accuracy and precision were expressed by relative error (RE) and relative standard deviation (RSD), respectively. The extraction recovery and matrix effect of the 6 components at above-mentioned three concentration levels were determined. Stability was assessed under the condition of placing un-treated plasma samples at room temperature for 6 h, and extracted plasma samples in auto-sampler for 10 h, as well as placing plasma samples within freeze-thaw three cycles and at −80 °C for 15 days.

[3] = Multicomponent pharmacokinetics in rat plasma after i.v. safflower injection (SI); conditions: for AUC(0-inf) / AUC(0-t) / Cmax / MRT inf / MRT last / Vd / clearance / half-life / concentration at 15 min: male, Sprague-Dawley, rat, plasma; for AUC(0-inf) / AUC(0-t) / Cmax / MRT inf / MRT last / Vd / clearance / half-life: iv; for detected mean maximum plasma concentration: rats, after administration of 4 ml/kg of SI; for concentration at 15 min: intravenous
Method: The animal experiments were approved by the Animal Care and Use Committee of the College of Animal Science (College of Bee Science), Fujian Agriculture and Forestry University (Approval Number: PZCASFAFU21012). 250 ± 20 g of male Sprague-Dawley (SD) rats were provided by Lab Animal Center in Fujian Medical University (Fuzhou, China).
Ten rats were divided into three groups (Low dose group, n = 4; medium and high groups, n = 3, respectively). […] For each rat, 2 ml of physiological saline was supplemented after 30 min sampling via intraperitoneal injection. The plasma samples were obtained by centrifugation at 3,000 rpm for 10 min and stored at −20°C until analysis.
Clear supernatant (5 μl) was injected into HPLC-MS for bioanalysis.
The sample was separated on a RD-C18 column (4.6 mm × 50 mm, 3.5 μm, Zhongpu Develop, China). The mobile phase incudes water with 0.1% acetic acid (A) and acetonitrile (B). […] The column temperature, flow rate and injection volume were set at 30°C, 0.5 ml/min and 5 μl, respectively.
Non-compartmental model was used to calculate the PK parameters by DAS 3.0 software (Chinese Pharmacologic Society, Beijing, China). A single-tailed t-test was carried out in the study.

[4] = Stability in diluted SI at room temperature; conditions: analyzed at 0, 2, 4, 8, 12, 24, and 48 h
[5] = 1 h after administration (2 ml/kg of SI), preliminary test
[6] = behind 15 min after i.v. low dose administration (1 ml/kg of SI)

concentration at 15 min ([3]; 2 ml/kg) | SMILES | 10h in auto-sampler vials RE ([2]; spiked 40 ng/mL) | 10h in auto-sampler vials RE ([2]; spiked 1000 ng/mL) | 10h in auto-sampler vials RE ([2]; spiked 10000 ng/mL) | 6h at room temperature RE ([2]; spiked 40 ng/mL) | Freeze-thaw stability (three cycles) RE ([2]; spiked 40 ng/mL) | Long-term stability (-80℃,15 days) RE ([2]; spiked 40 ng/mL) | 6h at room temperature RE ([2]; spiked 1000 ng/mL) | Freeze-thaw stability (three cycles) RE ([2]; spiked 1000 ng/mL) | Long-term stability (-80℃,15 days) RE ([2]; spiked 1000 ng/mL) | 6h at room temperature RE ([2]; spiked 10000 ng/mL) | Freeze-thaw stability (three cycles) RE ([2]; spiked 10000 ng/mL) | Long-term stability (-80℃,15 days) RE ([2]; spiked 10000 ng/mL) | detection in rat plasma [3, 5] | detection in rat plasma [3, 6] | AUC(0-inf) ([3]; 4 ml/kg) | AUC(0-t) ([3]; 4 ml/kg) | Cmax ([3]; 4 ml/kg) | MRT inf ([3]; 4 ml/kg) | Stability RSD [4] | also measured
< 0.5 ng/mL | Nc1ncnc2c1ncn2[C@@H]1O[C@H](CO)[C@@H](O)[C@H]1O [adenosine] |  |  |  |  |  |  |  |  |  |  |  |  |  |  |  |  |  |  | 2.74% | 
< 0.5 ng/mL | Nc1ccn([C@@H]2O[C@H](CO)[C@@H](O)[C@H]2O)c(=O)n1 [cytidine] |  |  |  |  |  |  |  |  |  |  |  |  |  |  |  |  |  |  | 1.85% | 
< 0.5 ng/mL | Nc1nc2c(ncn2[C@@H]2O[C@H](CO)[C@@H](O)[C@H]2O)c(=O)[nH]1 [guanosine] |  |  |  |  |  |  |  |  |  |  |  |  |  |  |  |  |  |  |  | 

The remaining lines, values behind:

SMILES | concentration at 15 min ([3]; 2 ml/kg) | 10h in auto-sampler vials RE ([2]; spiked 40 ng/mL) | 10h in auto-sampler vials RE ([2]; spiked 1000 ng/mL) | 10h in auto-sampler vials RE ([2]; spiked 10000 ng/mL) | 6h at room temperature RE ([2]; spiked 40 ng/mL) | Freeze-thaw stability (three cycles) RE ([2]; spiked 40 ng/mL) | Long-term stability (-80℃,15 days) RE ([2]; spiked 40 ng/mL) | 6h at room temperature RE ([2]; spiked 1000 ng/mL) | Freeze-thaw stability (three cycles) RE ([2]; spiked 1000 ng/mL) | Long-term stability (-80℃,15 days) RE ([2]; spiked 1000 ng/mL) | 6h at room temperature RE ([2]; spiked 10000 ng/mL) | Freeze-thaw stability (three cycles) RE ([2]; spiked 10000 ng/mL) | Long-term stability (-80℃,15 days) RE ([2]; spiked 10000 ng/mL) | detection in rat plasma [3, 5] | detection in rat plasma [3, 6] | AUC(0-inf) ([3]; 4 ml/kg) | AUC(0-t) ([3]; 4 ml/kg) | Cmax ([3]; 4 ml/kg) | MRT inf ([3]; 4 ml/kg) | Stability RSD [4] | also measured
CC(=O)N[C@@H](CS)C(=O)O [NAC, N-Acetyl-L-cysteine, reference compound] |  |  |  |  |  |  |  |  |  |  |  |  |  |  |  |  |  |  |  |  | protection rate ([1]; 1 mM, positive drug): 6.45%
C[C@@H]1O[C@@H](OC[C@H]2O[C@@H](Oc3c(-c4ccc(O)c(O)c4)oc4cc(O)cc(O)c4c3=O)[C@H](O)[C@@H](O)[C@@H]2O)[C@H](O)[C@H](O)[C@H]1O [RU, rutin] |  | 6.25% | 2.90% | -5.96% | -4.00% | -4.50% | 7.00% | -2.48% | -3.06% | 3.36% | -3.71% | 0.09% | -2.80% | can be detected | can’t be detected | 15.1 ± 2.23 ng·h/mL | 12.4 ± 1.37 ng·h/mL | 39.3 ± 1.53 ng/mL | 0.36 ± 0.06 h | 2.31% | protection ([1]; 0.06 μM): absence of protection; MRT last ([3]; 4 ml/kg): 0.22 ± 0.03 h; Vd ([3]; 4 ml/kg): 0.3 ± 0.02 L/kg; clearance ([3]; 4 ml/kg): 14.3 mL/min/kg; half-life ([3]; 4 ml/kg): 0.24 ± 0.04 h; detected mean maximum plasma concentration [3]: 0.039 μg/mL and 0.06 μM
O=C(O)[C@H]1O[C@@H](Oc2cc3oc(-c4ccc(O)cc4)cc(=O)c3c(O)c2O)[C@H](O)[C@@H](O)[C@@H]1O [SCU, scutellarin] |  | 10.63% | 0.30% | -1.48% | -6.50% | 0.00% | 6.00% | -2.90% | -4.00% | 2.80% | -2.06% | -5.21% | -0.81% | can be detected | can’t be detected | 358 ± 34 ng·h/mL | 306 ± 12.5 ng·h/mL | 327 ± 60 ng/mL | 2.96 ± 1.49 h | 4.42% | protection ([1]; 0.7 μM): absence of protection; half-life [3]: ≥ 2.58 h; AUC(0-inf) ([3]; 2 ml/kg): 105 ± 31.5 ng·h/mL; AUC(0-t) ([3]; 2 ml/kg): 89.8 ± 21 ng·h/mL; Cmax ([3]; 2 ml/kg): 162 ± 17.4 ng/mL; MRT inf ([3]; 2 ml/kg): 2.9 ± 2.42 h; MRT last ([3]; 2 ml/kg): 1.46 ± 0.64 h; Vd ([3]; 2 ml/kg): 0.05 ± 0.02 L/kg; clearance ([3]; 2 ml/kg): 0.167 mL/min/kg; half-life ([3]; 2 ml/kg): 2.58 ± 1.84 h; MRT last ([3]; 4 ml/kg): 1.57 ± 0.68 h; Vd ([3]; 4 ml/kg): 0.03 ± 0.01 L/kg; clearance ([3]; 4 ml/kg): 0.167 mL/min/kg; half-life ([3]; 4 ml/kg): 2.84 ± 1.19 h; detected mean maximum plasma concentration [3]: 0.327 μg/mL and 0.7 μM
